From patent US8703796B2, “3H-imidazo [4, 5-B] pyridine-6-carboxamides as anti-inflammatory agents” (Boehringer Ingelheim International GmbH, priority 2008, dated 2014) come the findings set out here.

Molecules are shown by their SMILES.

As a reminder, the inhibition is the relative decrease from the control value, in per cent.

The target in this test is T1, recombinant human mPGES-1 (Homo sapiens, UniProt O14684).
T1 construct: made in house; host or cells: Rosetta E. coli (microsomal/membrane fraction)
T1 sequence (O14684 1-152): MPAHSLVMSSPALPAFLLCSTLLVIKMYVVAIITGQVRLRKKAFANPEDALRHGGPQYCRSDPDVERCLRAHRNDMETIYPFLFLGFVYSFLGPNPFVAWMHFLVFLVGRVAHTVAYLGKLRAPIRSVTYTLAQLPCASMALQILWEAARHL
The experiment in a line: mPGES-1 inhibition, HTRF detection of PGE2. The format is biochemical. How it is done:
Microsomes from Rosetta E. coli bacteria expressing recombinant human mPGES-1 is dissolved in 0.1 M KPi pH 7.4 buffer containing 2.5 mM GSH. 50 μl of the enzyme is subsequently dispensed in a 384-well plate. 0.5 μl of the inhibitor dissolved in DMSO at is thereafter added to each well and incubated for 25 minutes at room temperature. Subsequently, 2 μl of PGH2 dissolved in an appropriate solvent is added to each well and after one minute the acidified stop solution containing FeCl2 is added. 4 μl of the total volume is transferred to a separate plate and diluted 750-fold in two separate steps before HTRF detection of PGE2.
The HTRf detection is performed by the use of a commercially available kit from CisBio essentially according to the manufacturer's protocol. Briefly, 10 μl of the diluted sample is transferred to a white 384-well plate. 5 μl of d2 and 5 μl Eu3+-Cryptate labeled anti-PGE2 is added to each well containing samples by the use of a Multidrop. The plate is covered with a plastic self-adhesive film, centrifuged at 1200 rpm for 1 minute and subsequently stored at +4° C. over night.
After over night incubation the fluorescence is measured by the use of an appropriate microplate reader. The fluorescence of europium cryptate, and d2 are measured using the following excitation and emission wavelength, europium cryptate: λmax^ex=307 nm, λmax^em=620 nm and d2: λmax^ex=620 nm, λmax^em=665 nm), respectively. The extent of the specific FRET is measured as a ratio of the emission intensity at 665 nm vs. that at 620 nm. A standard curve using synthetic PGE2 is used to quantify the amount of PGE2 in unknown samples.
Consider `Cn1c(Nc2c(Cl)cncc2Cl)nc2cc(C(=O)NCc3ncccc3C(F)(F)F)c(OCCF)nc21` [Example 835, 2-(3,5-Dichloro-pyridin-4-ylamino)-5-(2-fluoro-ethoxy)-N-((3-trifluoromethyl-pyridin-2-yl)-methyl)-3-methyl-3H-imidazo[4,5-b]pyridine-6-carboxamide], for which the inhibition at 10 µM turned out to be 95%.

In the case of `O=C(N[C@H]1CC[C@H](C(F)(F)F)CC1)c1cc2nc(Nc3c(Cl)ccc(Cl)c3F)[nH]c2nc1OCC(F)F` [Example 796, 2-(3,6-Dichloro-2-fluoro-phenylamino)-5-(2,2-difluoro-ethoxy)-N-(trans-4-trifluoromethyl-cyclohexyl)-3H-imidazo[4,5-b]pyridine-6-carboxamide], the inhibition at 10 µM was 96%.

With `Cn1c(Nc2c(Cl)cc(F)cc2Cl)nc2cc(C(=O)Nc3ccc(Br)cc3)c(OCC(F)F)nc21` [Example 818, 2-(2,6-Dichloro-4-fluoro-phenylamino)-5-(2,2-difluoro-ethoxy)-N-(4-bromo-phenyl)-3-methyl-3H-imidazo[4,5-b]pyridine-6-carboxamide], the inhibition at 10 µM was found to be 99%.

`CCCC[C@@H](C)NC(=O)c1cnc2c(c1)nc(Nc1c(Cl)cccc1Cl)n2C` [Example 508, (R)-2-(2,6-Dichlorophenylamino)-N-(hexan-2-yl)-3-methyl-3H-imidazo[4,5-b]pyridine-6-carboxamide]: the inhibition at 10 µM worked out at 94%.

Regarding `CCOc1nc2[nH]c(Nc3c(Cl)cncc3Cl)nc2cc1C(=O)NCc1ncccc1C(F)(F)F` [Example 843, 2-(3,5-Dichloro-pyridin-4-ylamino)-5-ethoxy-N-((3-trifluoromethyl-pyridin-2-yl)-methyl)-3H-imidazo[4,5-b]pyridine-6-carboxamide], the inhibition at 10 µM is 99%.

As for `CCCCCC[C@@H](C)NC(=O)c1cnc2c(c1)nc(Nc1c(Cl)cccc1Cl)n2C` [Example 411, (R)-2-(2,6-Dichlorophenylamino)-3-methyl-N-(oct-2-yl)-3H-imidazo[4,5-b]pyridine-6-carboxamide], the inhibition at 10 µM is 100%.

Take `CN(C)CCOc1nc2c(cc1C(=O)N[C@H]1CC[C@H](C(F)(F)F)CC1)nc(Nc1c(Cl)cc(F)cc1Cl)n2C` [Example 865, 2-(2,6-Dichloro-4-fluoro-phenylamino)-5-(2-dimethylamino-ethoxy)-N-(trans-4-trifluoromethyl-cyclohexyl)-3-methyl-3H-imidazo[4,5-b]pyridine-6-carboxamide]: the inhibition at 10 µM was determined as 92%.

With `CCCCCCNC(=O)c1cnc2c(c1)nc(Nc1c(Cl)cccc1Cl)n2C` [Example 439, 2-(2,6-Dichlorophenylamino)-N-hexyl-3-methyl-3H-imidazo[4,5-b]pyridine-6-carboxamide], the inhibition at 10 µM turned out to be 91%.

With `O=C(NCc1ccccc1C(F)(F)F)c1cc2nc(Nc3c(Cl)cc(F)cc3Cl)[nH]c2nc1OCC(F)F` [Example 824, 2-(2,6-Dichloro-4-fluoro-phenylamino)-5-(2,2-difluoro-ethoxy)-N-(2-trifluoromethyl-benzyl)-3H-imidazo[4,5-b]pyridine-6-carboxamide], the inhibition at 10 µM turned out to be 100%.

Consider `O=C(Nc1ccc(Br)cc1)c1cc2nc(Nc3c(Cl)cc(F)cc3Cl)[nH]c2nc1OCC(F)F` [Example 822, 2-(2,6-Dichloro-4-fluoro-phenylamino)-5-(2,2-difluoro-ethoxy)-N-(4-bromo-phenyl)-3H-imidazo[4,5-b]pyridine-6-carboxamide], for which the inhibition at 10 µM turned out to be 100%.

As for `Cn1c(Nc2c(Cl)cccc2Cl)nc2cc(C(=O)N[C@H]3CC[C@H](C(F)F)CC3)cnc21` [Example 560], the inhibition at 10 µM turned out to be 93%.

On to `Cn1c(Nc2c(Cl)cncc2Cl)nc2cc(C(=O)N[C@H]3CC[C@H](C(F)(F)F)CC3)c(OCC(F)F)nc21` [Example 838, 2-(3,5-Dichloro-pyridin-4-ylamino)-5-(2,2-difluoro-ethoxy)-N-(trans-4-trifluoromethyl-cyclohexyl)-3-methyl-3H-imidazo[4,5-b]pyridine-6-carboxamide], for which the inhibition at 10 µM worked out at 94%.

Regarding `O=C(N[C@H]1CC[C@H](C(F)F)CC1)c1cnc2[nH]c(Nc3c(Cl)cccc3Cl)nc2c1` [Example 535, 2-(2,6-Dichlorophenylamino)-N-((1r,4r)-4-(difluoromethyl)cyclohexyl)-3H-imidazo[4,5-b]pyridine-6-carboxamide], the inhibition at 10 µM stood at 100%.

For the compound `O=C(Nc1ccc(Br)cc1)c1cc2nc(Nc3ccccc3C(F)(F)F)[nH]c2nc1OCC(F)F` [Example 775, N-(4-Bromo-phenyl)-2-(2-trifluoromethyl-phenylamino)-5-(2,2-difluoroethoxy)-3H-imidazo[4,5-b]pyridine-6-carboxamide], the inhibition at 1 µM was found to be 95%.

In the case of `O=C(NCC(F)(F)C(F)(F)C(F)(F)C(F)(F)F)c1cc2nc(Nc3c(Cl)cncc3Cl)[nH]c2nc1OCC(F)(F)F` [Example 854, 2-(3,5-Dichloro-pyridin-4-ylamino)-5-(2,2,2-trifluoro-ethoxy)-N-(2,2,3,3,4,4,5,5,5-nonafluoro-pentyl)-3H-imidazo[4,5-b]pyridine-6-carboxamide], the inhibition at 10 µM amounted to 96%.

Turning to `Cn1c(Nc2c(F)cccc2C(F)(F)F)nc2cc(C(=O)Nc3ccc(Br)cc3)c(OCC(F)F)nc21` [Example 771, N-(4-Bromophenyl)-2-(2-fluoro-6-trifluoromethylphenylamino)-5-(2,2-difluoro-ethoxy)-3-methyl-3H-imidazo[4,5-b]pyridine-6-carboxamide], the inhibition at 1 µM amounted to 100%.

For `CC(C)n1c(Nc2c(F)cccc2Cl)nc2cc(C(=O)NC3CCC(C)(C)CC3)cnc21` [Example 511, 2-(2-Chloro-6-fluorophenylamino)-N-(4,4-dimethylcyclohexyl)-3-isopropyl-3H-imidazo[4,5-b]pyridine-6-carboxamide], the inhibition at 10 µM is 96%.

Turning to `Cn1c(Nc2ccccc2C(F)(F)F)nc2cc(C(=O)Nc3ccc(Br)cc3)c(OCC(F)F)nc21` [Example 772, N-(4-Bromo-phenyl)-2-(2-trifluoromethyl-phenylamino)-5-(2,2-difluoroethoxy)-3-methyl-3H-imidazo[4,5-b]pyridine-6-carboxamide], the inhibition at 1 µM came out at 100%.

In the case of `Cn1c(Nc2c(Cl)cc(F)cc2Cl)nc2cc(C(=O)NCC(F)(F)C(F)(F)C(F)(F)C(F)(F)F)c(OCC(F)(F)F)nc21` [Example 873, 2-(2,6-Dichloro-4-fluoro-phenylamino)-5-(2,2,2-trifluoro-ethoxy)-N-(2,2,3,3,4,4,5,5,5-nonafluoropentyl)-3-methyl-3H-imidazo[4,5-b]pyridine-6-carboxamide], the inhibition at 10 µM worked out at 100%.

Regarding `COCCOc1nc2[nH]c(Nc3c(Cl)cncc3Cl)nc2cc1C(=O)Nc1ccc(Br)cc1` [Example 801, 2-(3,5-Dichloro-pyridin-4-ylamino)-5-(2-methoxy-ethoxy)-N-(4-bromo-phenyl)-3H-imidazo[4,5-b]pyridine-6-carboxamide], the inhibition at 10 µM was 96%.

`CC(C)[C@H]1CC[C@H](NC(=O)c2cnc3c(c2)nc(Nc2c(Cl)cccc2Cl)n3C)CC1` [Example 400, 2-(2,6-Dichlorophenylamino)-N-((1r,4r)-4-isopropylcyclohexyl)-3-methyl-3H-imidazo[4,5-b]pyridine-6-carboxamide]: the inhibition at 10 µM was 97%.

As to `O=C(N[C@H]1CC[C@H](C(F)(F)F)CC1)c1cc2nc(Nc3c(Cl)cccc3C(F)(F)F)[nH]c2nc1OCC(F)F` [Example 778, 2-(2-Chloro-6-trifluoromethyl-phenylamino)-5-(2,2-difluoro-ethoxy)-N-(trans-4-trifluoromethyl-cyclohexyl)-3H-imidazo[4,5-b]pyridine-6-carboxamide], the inhibition at 1 µM was 98%.

With `O=C(NCc1ncccc1C(F)(F)F)c1cc2nc(Nc3c(Cl)cncc3Cl)[nH]c2nc1OCC(F)(F)F` [Example 855, 2-(3,5-Dichloro-pyridin-4-ylamino)-5-(2,2,2-trifluoro-ethoxy)-N-((3-trifluoromethyl-pyridin-2-yl)-methyl)-3H-imidazo[4,5-b]pyridine-6-carboxamide], the inhibition at 10 µM amounted to 100%.

Regarding `O=C(Nc1ccc(Br)cc1)c1cc2nc(Nc3c(Cl)cc(F)cc3Cl)[nH]c2nc1OCC(F)(F)F` [Example 820, 2-(2,6-Dichloro-4-fluoro-phenylamino)-5-(2,2,2-trifluoro-ethoxy)-N-(4-bromo-phenyl)-3H-imidazo[4,5-b]pyridine-6-carboxamide], the inhibition at 10 µM stood at 99%.

On to `Cn1c(Nc2c(Cl)cccc2Cl)nc2cc(C(=O)NC3CCC(C(C)(C)C)CC3)cnc21` (stereo not shown) [Example 393, N-(4-tert-Butylcyclohexyl)-2-(2,6-dichlorophenylamino)-3-methyl-3H-imidazo[4,5-b]pyridine-6-carboxamide], for which the inhibition at 10 µM was found to be 99%.
